Assay results as given in patent US9850283B2, “Macrocyclic inhibitors of the PD-1/PD-L1 and CD80(B7-1)/PD-L1 protein/protein interactions” (BRISTOL-MYERS SQUIBB COMPANY, priority 2013, dated 2017).
Like-named read-outs stand apart in the source and are kept apart here. Positions of bridges follow the written chain, without caps; N, C: chain ends. Non-standard residues stand in square brackets, D forms with d. Residues, ends and D or L forms follow the SMILES beside them. ξ: configuration not given here. Phe(3,4-(OMe)2) = COc1ccc(C[C@H](N)C(=O)O)cc1OC; Phe(F5) = N[C@@H](Cc1c(F)c(F)c(F)c(F)c1F)C(=O)O; Phe(2,4-Cl2) = N[C@@H](Cc1ccc(Cl)cc1Cl)C(=O)O; Pro(5S-Me) = C[C@H]1CC[C@@H](C(=O)O)N1; Bta = N[C@@H](Cc1csc2ccccc12)C(=O)O; cisHyp = O=C(O)[C@@H]1C[C@H](O)CN1; Hyp = O=C(O)[C@@H]1C[C@@H](O)CN1; NMeF = CN[C@@H](Cc1ccccc1)C(=O)O; hPhe = N[C@@H](CCc1ccccc1)C(=O)O; dNMeNle = CCCC[C@@H](NC)C(=O)O; NMeNle = CCCC[C@H](NC)C(=O)O; NMeS = CN[C@@H](CO)C(=O)O; NMeA = CN[C@@H](C)C(=O)O; Orn = NCCC[C@H](N)C(=O)O; dDap = NC[C@@H](N)C(=O)O; Dab = NCC[C@H](N)C(=O)O; Dap = NC[C@H](N)C(=O)O; ξP = O=C(O)C1CCCN1; ξC = NC(CS)C(=O)O; Sar = CNCC(=O)O

Tests used:
Human PD-L1/PD-1 = target: T1, Human PD-L1/PD-1 (Homo sapiens, UniProt Q9NZQ7); test: HTRF PD-1-Ig/PD-L1-His binding assay (human PD-L1)
T1 construct: made in house; host or cells: HEK293T
How it was run: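 Ig- and His-fused extracellular PD-1/PD-L1 binding in BSA/Tween-20 dPBS. HTRF with Eu anti-Ig (1 nM final) and APC anti-His (20 nM final).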

[1] = target: T2, LK35.2-hPD-L1 cells / PE-labeled PD-1-Ig (Homo sapiens, UniProt Q9NZQ7); test: LK35.2-hPD-L1 cell binding high-content screening assay; assay type: cell-based
T2 construct: expressed in transfected cells; host or cells: LK35.2 mouse B cell line
How it was run: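 Compound effect on PD-1/PD-L1 binding is measured by imaging cell-associated phycoerythrin signal. Human PD-1-Ig (PE on Ig tag, 1 nM final) is applied with compound to a murine B cell line overexpressing human PD-L1 for 1 h at 37 °C in serum-containing RPMI.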

[2] = cluster symbol, read-out: HTRF IC50 cluster
[3] = cell binding assay, cell line not given, cluster symbol, read-out: CBA IC50 cluster
[4] = cluster symbol, cell line of CBA not given (LK35.2-hPD-L1 or 293T-hPD-L1), read-out: CBA IC50 cluster

T1 sequence (Q9NZQ7 with tags, fused parts or gaps): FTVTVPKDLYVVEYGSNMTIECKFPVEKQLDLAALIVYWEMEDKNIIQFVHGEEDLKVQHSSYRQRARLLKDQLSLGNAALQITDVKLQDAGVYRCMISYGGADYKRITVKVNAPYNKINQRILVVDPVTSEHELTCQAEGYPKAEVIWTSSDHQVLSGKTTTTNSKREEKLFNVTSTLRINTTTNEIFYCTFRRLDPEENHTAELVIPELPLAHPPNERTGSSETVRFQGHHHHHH
T2 sequence (Q9NZQ7 19-290): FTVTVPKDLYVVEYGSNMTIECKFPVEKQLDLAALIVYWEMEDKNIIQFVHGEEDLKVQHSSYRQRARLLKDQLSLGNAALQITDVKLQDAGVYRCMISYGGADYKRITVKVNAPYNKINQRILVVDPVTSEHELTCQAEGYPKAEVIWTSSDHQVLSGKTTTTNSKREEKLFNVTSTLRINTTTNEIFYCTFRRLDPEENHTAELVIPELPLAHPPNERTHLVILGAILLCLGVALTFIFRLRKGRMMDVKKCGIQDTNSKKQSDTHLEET

SMILES	IC50 (Human PD-L1/PD-1; read-out: HTRF IC50 value) [nM]	IC50 ([1]; cell line of CBA not given (LK35.2-hPD-L1 or 293T-hPD-L1), read-out: CBA IC50 value) [nM]	IC50 (Human PD-L1/PD-1; [2]) [nM]	IC50 [1, 3] [nM]	IC50 [1, 4] [nM]
CCCC[C@H]1C(=O)N(C)CC(=O)N[C@@H](CC(=O)O)C(=O)N[C@@H](C(C)C)C(=O)N(C)[C@@H](Cc2ccccc2)C(=O)N[C@@H](Cc2ccc(O)cc2)C(=O)N(C)CC(=O)N[C@@H](Cc2c[nH]c3ccccc23)C(=O)N[C@@H](Cc2c(F)c(F)c(F)c(F)c2F)C(=O)N[C@@H](CC(C)C)C(=O)N[C@H](C(=O)NCC(N)=O)CSCC(=O)N[C@@H](Cc2ccccc2)C(=O)N(C)[C@@H](Cc2ccccc2)C(=O)N1C [Example 3080] ({CH2CO}-F[NMeF][NMeNle][Sar]DV[NMeF]Y[Sar]W[Phe(F5)]LCG-NH2; thioether N-13)	> 10000	> 10000			
CCCC[C@H]1C(=O)N(C)[C@@H](CCCC)C(=O)N[C@@H](CCCNC(=N)N)C(=O)N[C@H](C(=O)NCC(N)=O)CSCC(=O)N[C@@H](Cc2ccc(Cl)cc2Cl)C(=O)N(C)[C@@H](C)C(=O)N[C@@H](CC(N)=O)C(=O)N2CCC[C@H]2C(=O)N[C@@H](Cc2cnc[nH]2)C(=O)N[C@@H](CC(C)C)C(=O)N2C[C@H](O)C[C@H]2C(=O)N[C@@H](Cc2c[nH]c3ccccc23)C(=O)N[C@@H](CO)C(=O)N[C@@H](Cc2c[nH]c3ccccc23)C(=O)N1C [Example 7062] ({CH2CO}-[Phe(2,4-Cl2)][NMeA]NPHL[Hyp]WSW[NMeNle][NMeNle]RCG-NH2; thioether N-14)			0.385 to 6.74	4.78 to 72.9	
CCCC[C@H]1C(=O)N(C)[C@@H](CCCC)C(=O)N[C@@H](CCCNC(=N)N)C(=O)NC(C(=O)NCC(N)=O)CSCC(=O)N[C@@H](Cc2ccc(O)cc2)C(=O)N(C)[C@@H](C)C(=O)N[C@@H](CC(N)=O)C(=O)N2CCC[C@H]2C(=O)N[C@@H](Cc2cnc[nH]2)C(=O)N[C@@H](CC(C)C)C(=O)N2[C@@H](C)CC[C@H]2C(=O)N[C@@H](Cc2c[nH]c3ccccc23)C(=O)N[C@@H](CO)C(=O)N[C@@H](Cc2csc3ccccc23)C(=O)N1C (stereo partly drawn) [Example 9015] ({CH2CO}-Y[NMeA]NPHL[Pro(5S-Me)]WS[Bta][NMeNle][NMeNle]R[ξC]G-NH2; thioether N-14)			6.76 to 30.3	0.158 to 4.71	
CCCC[C@H]1C(=O)N(C)[C@@H](CCCC)C(=O)N[C@@H]([C@@H](C)O)C(=O)N[C@H](C(=O)NCC(N)=O)CSCC(=O)N[C@@H](Cc2ccccc2)C(=O)N(C)[C@@H](C)C(=O)N[C@@H](CC(N)=O)C(=O)N2CCC[C@H]2C(=O)N[C@@H](Cc2cnc[nH]2)C(=O)N[C@@H](CC(C)C)C(=O)N(C)CC(=O)N[C@@H](Cc2c[nH]c3ccccc23)C(=O)N[C@@H](CO)C(=O)N[C@@H](Cc2c[nH]c3ccccc23)C(=O)N1C [Example 5021] ({CH2CO}-F[NMeA]NPHL[Sar]WSW[NMeNle][NMeNle]TCG-NH2; thioether N-14)			> 30.5	> 74.3	
CCCC[C@H]1C(=O)N(C)CC(=O)N[C@@H](CC(=O)O)C(=O)N[C@@H](C(C)C)C(=O)N(C)[C@@H](Cc2ccccc2)C(=O)N[C@@H](Cc2ccc(O)cc2)C(=O)N(C)CC(=O)N[C@@H](Cc2c[nH]c3ccccc23)C(=O)N[C@@H](Cc2ccc(O)cc2)C(=O)N[C@@H](CC(C)C)C(=O)N[C@H](C(=O)NCC(N)=O)CSCC(=O)N[C@@H](CCc2ccccc2)C(=O)N(C)[C@@H](Cc2ccccc2)C(=O)N1C [Example 3082] ({CH2CO}-[hPhe][NMeF][NMeNle][Sar]DV[NMeF]Y[Sar]WYLCG-NH2; thioether N-13)			> 30.5		> 74.3
CCCC[C@H]1C(=O)N(C)CC(=O)N[C@@H](CC(=O)O)C(=O)N[C@@H](C(C)C)C(=O)N(C)[C@@H](Cc2ccccc2)C(=O)N[C@@H](Cc2ccc(O)cc2)C(=O)N(C)CC(=O)N[C@@H](Cc2c[nH]c3ccccc23)C(=O)N[C@@H](Cc2ccc(O)cc2)C(=O)N[C@@H](CC(C)C)C(=O)N[C@H](C(=O)NCC(N)=O)CSCC(=O)N[C@@H](Cc2ccc(OC)c(OC)c2)C(=O)N(C)[C@@H](Cc2ccccc2)C(=O)N1C [Example 3102] ({CH2CO}-[Phe(3,4-(OMe)2)][NMeF][NMeNle][Sar]DV[NMeF]Y[Sar]WYLCG-NH2; thioether N-13)			> 30.5		> 74.3
CCCC[C@H]1C(=O)N(C)[C@@H](CCCC)C(=O)N[C@@H](C)C(=O)N[C@H](C(=O)NCC(N)=O)CSCC(=O)N[C@@H](Cc2ccc(O)cc2)C(=O)N(C)[C@@H](C)C(=O)N[C@@H](CC(N)=O)C(=O)N2CCC[C@H]2C(=O)N[C@@H](Cc2cnc[nH]2)C(=O)N[C@@H](CCC(N)=O)C(=O)N2C[C@H](O)C[C@H]2C(=O)N[C@@H](Cc2c[nH]c3ccccc23)C(=O)N[C@@H](CO)C(=O)N[C@@H](Cc2c[nH]c3ccccc23)C(=O)N1C [Example 5047]			6.76 to 30.3	4.78 to 72.9	
CCCC[C@H]1C(=O)N(C)[C@@H](CCCC)C(=O)N[C@@H](CC(C)C)C(=O)N[C@H](C(=O)NCC(N)=O)CSCC(=O)N[C@@H](Cc2ccc(O)cc2)C(=O)N(C)[C@@H](C)C(=O)N[C@@H](CCN)C(=O)N2CCC[C@H]2C(=O)N[C@@H](Cc2c[nH]cn2)C(=O)N[C@@H](CCC(=O)O)C(=O)N2C[C@H](O)C[C@H]2C(=O)N[C@@H](Cc2c[nH]c3ccccc23)C(=O)N[C@@H](CO)C(=O)N[C@@H](Cc2c[nH]c3ccccc23)C(=O)N1C [Example 5133] ({CH2CO}-Y[NMeA][Dab]PHE[Hyp]WSW[NMeNle][NMeNle]LCG-NH2; thioether N-14)			0.385 to 6.74	4.78 to 72.9	
CCCC[C@H]1C(=O)N(C)[C@@H](CCCC)C(=O)N[C@@H](CCCNC(=N)N)C(=O)N[C@H](C(=O)NCC(N)=O)CSCC(=O)N[C@@H](Cc2ccc(O)cc2)C(=O)N(C)[C@@H](C)C(=O)N[C@@H](CCCN)C(=O)N2CCC[C@H]2C(=O)N[C@@H](C)C(=O)N[C@@H](CC(C)C)C(=O)N2C[C@@H](O)C[C@H]2C(=O)N[C@@H](Cc2c[nH]c3ccccc23)C(=O)N[C@@H](CO)C(=O)N[C@@H](Cc2c[nH]c3ccccc23)C(=O)N1C [Example 1146] ({CH2CO}-Y[NMeA][Orn]PAL[cisHyp]WSW[NMeNle][NMeNle]RCG-NH2; thioether N-14)			6.76 to 30.3		> 74.3
CCCC[C@H]1C(=O)N(C)CC(=O)N[C@@H](CC(=O)O)C(=O)N[C@@H](C(C)C)C(=O)N(C)[C@@H](Cc2ccccc2)C(=O)N[C@@H](Cc2ccc(O)cc2)C(=O)N(C)CC(=O)N[C@@H](Cc2c[nH]c3ccccc23)C(=O)N[C@@H](Cc2ccc(O)cc2)C(=O)N[C@@H](CC(C)C)C(=O)N[C@H](C(=O)NCC(N)=O)CSCC(=O)N[C@@H](Cc2c(F)c(F)c(F)c(F)c2F)C(=O)N(C)[C@@H](Cc2ccccc2)C(=O)N1C [Example 3078] ({CH2CO}-[Phe(F5)][NMeF][NMeNle][Sar]DV[NMeF]Y[Sar]WYLCG-NH2; thioether N-13)			> 30.5		> 74.3
CCCC[C@H]1C(=O)N(C)[C@@H](CCCC)C(=O)N[C@@H](CCCNC(=N)N)C(=O)N[C@H](C(=O)NCC(N)=O)CSCC(=O)N[C@@H](Cc2ccc(O)cc2)C(=O)N(C)[C@@H](C)C(=O)N[C@@H](CC(N)=O)C(=O)N2CCC[C@H]2C(=O)N[C@@H](Cc2cnc[nH]2)C(=O)N[C@@H](CC(C)C)C(=O)N2C[C@H](O)C[C@H]2C(=O)N[C@@H](Cc2c[nH]c3ccccc23)C(=O)N[C@@H](CO)C(=O)N[C@@H](Cc2csc3ccccc23)C(=O)N1C [Example 1035] ({CH2CO}-Y[NMeA]NPHL[Hyp]WS[Bta][NMeNle][NMeNle]RCG-NH2; thioether N-14)			6.76 to 30.3		0.158 to 4.71
CCCC[C@H]1C(=O)N(C)[C@@H](CO)C(=O)N[C@@H](CCCNC(=N)N)C(=O)NC(C(=O)NCC(N)=O)CSCC(=O)N[C@@H](Cc2ccc(O)cc2)C(=O)N(C)[C@@H](C)C(=O)N[C@@H](CC(N)=O)C(=O)N2CCC[C@H]2C(=O)N[C@@H](Cc2cnc[nH]2)C(=O)N[C@@H](CC(C)C)C(=O)N2CCC[C@H]2C(=O)N[C@@H](Cc2c[nH]c3ccccc23)C(=O)N[C@@H](CO)C(=O)N[C@@H](Cc2csc3ccccc23)C(=O)N1C (stereo partly shown) [Example 9044] ({CH2CO}-Y[NMeA]NPHLPWS[Bta][NMeNle][NMeS]R[ξC]G-NH2; thioether N-14)			0.385 to 6.74	0.158 to 4.71	
CCCC[C@@H]1C(=O)N(C)[C@H](CCCC)C(=O)N[C@@H](CN)C(=O)N[C@@H](C(=O)NCC(N)=O)CSCC(=O)N[C@@H](Cc2ccc(O)cc2)C(=O)N2CCCC2C(=O)N[C@H](CC(=O)O)C(=O)N2CCC[C@H]2C(=O)N[C@H](CN)C(=O)N[C@@H](CC(=O)O)C(=O)N2CCCC2C(=O)N[C@H](Cc2c[nH]c3ccccc23)C(=O)N[C@@H](CCN)C(=O)N[C@@H](Cc2c[nH]c3ccccc23)C(=O)N1C (stereo partly shown) [Example 1212] ({CH2CO}-Y[ξP][dD]P[dDap]D[ξP][dW][Dab]W[dNMeNle][dNMeNle][Dap][dC]G-NH2; thioether N-14)			> 30.5		> 74.3
CCCC[C@H]1C(=O)N(C)[C@@H](CCCC)C(=O)N[C@@H](CCCNC(=N)N)C(=O)N[C@H](C(=O)NCC(N)=O)CSCC(=O)N[C@@H](Cc2ccc(O)cc2)C(=O)N(C)[C@@H](C)C(=O)N[C@@H](CC(N)=O)C(=O)N2CCC[C@H]2C(=O)N[C@@H](CN)C(=O)N[C@@H](CCC(=O)O)C(=O)N2C[C@H](O)C[C@H]2C(=O)N[C@@H](Cc2c[nH]c3ccccc23)C(=O)N[C@@H](CO)C(=O)N[C@@H](Cc2csc3ccccc23)C(=O)N1C [Example 1128] ({CH2CO}-Y[NMeA]NP[Dap]E[Hyp]WS[Bta][NMeNle][NMeNle]RCG-NH2; thioether N-14)			6.76 to 30.3		0.158 to 4.71
